Biological target: T1, T1R1 and T1R2 with G protein α-subunits (α15 and α16/Z chimeric protein) (Mus musculus, UniProt Q925I4+Q99PG6, E350G/G527D/P352R/R175Q)
T1 construct: expressed in transfected cells; host or cells: 293 cells, RCB 1637 (human embryonic kidney)
T1 sequence (Q99PG6 20-842 L120P/N244D/D281A/N309Y/P311T/S314P/H418Y): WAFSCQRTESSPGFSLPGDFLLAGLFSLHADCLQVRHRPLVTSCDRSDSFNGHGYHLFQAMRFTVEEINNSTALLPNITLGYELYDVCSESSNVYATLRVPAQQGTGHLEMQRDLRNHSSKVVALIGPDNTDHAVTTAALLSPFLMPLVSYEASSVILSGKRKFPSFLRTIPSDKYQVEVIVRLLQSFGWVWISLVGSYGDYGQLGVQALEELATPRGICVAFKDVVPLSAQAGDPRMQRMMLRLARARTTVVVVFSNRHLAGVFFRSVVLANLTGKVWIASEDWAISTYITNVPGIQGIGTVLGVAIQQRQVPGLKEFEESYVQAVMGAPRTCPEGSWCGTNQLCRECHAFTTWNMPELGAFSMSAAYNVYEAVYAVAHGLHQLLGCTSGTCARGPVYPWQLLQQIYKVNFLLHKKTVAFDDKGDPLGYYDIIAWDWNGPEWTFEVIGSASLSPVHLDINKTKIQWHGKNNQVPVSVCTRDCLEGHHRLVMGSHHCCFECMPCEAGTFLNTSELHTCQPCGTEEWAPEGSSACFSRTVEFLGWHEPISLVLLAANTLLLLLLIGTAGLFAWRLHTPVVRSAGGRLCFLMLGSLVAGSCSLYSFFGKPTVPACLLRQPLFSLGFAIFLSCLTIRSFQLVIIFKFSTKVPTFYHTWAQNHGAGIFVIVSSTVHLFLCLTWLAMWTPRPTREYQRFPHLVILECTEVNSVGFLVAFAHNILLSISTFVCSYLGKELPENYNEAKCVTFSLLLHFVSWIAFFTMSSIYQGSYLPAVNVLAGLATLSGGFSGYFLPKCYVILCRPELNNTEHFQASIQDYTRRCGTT
T1 sequence (Q925I4 20-843 R175Q/E350G/P352R/G527D): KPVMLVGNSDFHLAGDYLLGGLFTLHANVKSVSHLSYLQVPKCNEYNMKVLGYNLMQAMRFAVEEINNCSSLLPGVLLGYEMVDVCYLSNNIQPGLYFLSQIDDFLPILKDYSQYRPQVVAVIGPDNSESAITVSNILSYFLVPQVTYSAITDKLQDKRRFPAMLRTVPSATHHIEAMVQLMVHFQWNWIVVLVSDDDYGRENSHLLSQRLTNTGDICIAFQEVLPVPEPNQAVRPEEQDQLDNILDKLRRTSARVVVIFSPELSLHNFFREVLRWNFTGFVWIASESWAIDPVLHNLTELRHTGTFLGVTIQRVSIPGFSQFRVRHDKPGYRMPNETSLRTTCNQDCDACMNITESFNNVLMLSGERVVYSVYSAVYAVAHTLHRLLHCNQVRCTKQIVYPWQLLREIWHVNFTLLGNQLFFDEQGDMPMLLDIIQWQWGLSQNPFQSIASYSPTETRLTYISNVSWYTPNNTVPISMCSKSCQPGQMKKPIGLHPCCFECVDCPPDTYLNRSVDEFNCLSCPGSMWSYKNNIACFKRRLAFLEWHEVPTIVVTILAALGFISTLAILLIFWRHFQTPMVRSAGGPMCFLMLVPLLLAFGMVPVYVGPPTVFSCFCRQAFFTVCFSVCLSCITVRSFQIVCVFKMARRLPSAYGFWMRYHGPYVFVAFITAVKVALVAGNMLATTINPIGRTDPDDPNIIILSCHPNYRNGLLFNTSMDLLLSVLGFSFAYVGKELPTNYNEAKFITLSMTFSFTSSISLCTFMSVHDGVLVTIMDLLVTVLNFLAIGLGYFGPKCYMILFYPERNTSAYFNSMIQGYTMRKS
Experiment: Intracellular calcium ion assay, 293 cells coexpressing G protein α-subunits, T1R1 and T1R2
Type: cell-based
Settings: 293 cells: T1R1 + T1R2 + G protein α-subunits; 0.67 ml of 1 M saccharide solution added to 2 ml cell suspension; FLUO-4 AM
Method: The coexpression vector for the G protein α-subunit α15 and the G protein α16/Z chimeric protein (hereinafter designated as “G protein α-subunits”) obtained in Example 1-3 was gene transferred to 293 cells, RCB 1637, a human embryonic kidney cell line, available from the Riken Bioresource Center, Ibaraki, Japan, by conventional lipofection. The gene transferred cells were suspended in Dulbecco's Modified Eagle's Medium (D-MEM) supplemented with 1 mg/L of “PUROMYCIN”, a trade mane of puromycin commercialized by Edge Biosystems, MD, USA, and 10% (v/v) of fetal calf serum to give a cell density of 2×10^6 cells/ml and cultured in a plastic petri dish for cell culture. […]
The captioned reactivity test was conducted according to a conventional intracellular calcium ion assay: 293 Cells prepared in Example 3, capable of coexpressing the G protein α-subunits and the sweet taste receptor(s), were cultured in a plastic petri dish for cell culture until reaching its confluent phase. […] Two milliliters of the resultant cell suspension was injected into a glass cuvette, commercialized by Hitachi, Ltd., Tokyo, Japan, and analyzed on “HITACHI 650-40”, a fluorescence spectrophotometer commercialized by Hitachi, Ltd., Tokyo, Japan. […]

Structure (SMILES)	Influx of calcium ion
OC[C@H]1O[C@@](CO)(O[C@H]2O[C@H](CO)[C@@H](O)[C@H](O)[C@H]2O)[C@@H](O)[C@@H]1O [Sucrose, reference compound]	Negative
OC[C@H]1O[C@H](O[C@H]2O[C@H](CO)[C@@H](O)[C@H](O)[C@H]2O)[C@H](O)[C@@H](O)[C@@H]1O [Trehalose]	Negative
